Test results: paper PMC10054634, “Chemical Constituents of Thesium chinense Turcz and Their In Vitro Antioxidant, Anti-Inflammatory and Cytotoxic Activities” (Molecules, 2023)
“Also recorded” adds a separate entry of the source. Like-named read-outs stand apart in the source and are kept apart here.

Legend:
[1] = DPPH radical scavenging assay; conditions: for SC50: concentration required for 50% reduction of DPPH radicals, 37 °C, 30 min, 517 nm, nc = SC50 cannot be calculated due to weak or no related activities; for antioxidant activity on DPPH radical scavenging (in words): compared with positive control ascorbic acid
Method: The 2, 2-diphenyl-1-picrylhydrazyl (Aldrich Chem. Co. Ltd, Shanghai, China) radical scavenging activity assay was performed according to the previously published method with some modification. Test samples were dissolved in MeOH to six different concentrations ranging from 3.125 to 100 μM. Then, 100 μL of 100 μM DPPH in MeOH were mixed with 100 μL of samples at different concentrations in the wells of 96-well plates. The reaction mixtures were incubated in the dark at 37 °C for 30 min and then measured at 517 nm. Ascorbic acid was used as the positive control. The scavenging activity (SC) was estimated as follows: % SC = [1 − (Asample − Ablank)/Acontrol] ×100. Asample was the equivalent mixture of test sample and DPPH solution. Ablank was the equivalent mixture of test sample and MeOH solution. Acontrol was the equivalent mixture of DPPH and MeOH solution. The SC50 values were used to evaluate the antioxidant activities of isolated compounds. The experiments were performed in triplicate, and the data were expressed as the means ± SD of three independent experiments.

[2] = test system: SiHa; experiment: Cytotoxic assay (CCK-8), SiHa; type: cell-based, human; conditions: 48 h, mean ± SD (n = 3)
Method: (§1) Four human cancer cell lines, A549, NCI-H292, SiHa and MKN45, were purchased from the Cell Bank of the Chinese Academy of Sciences (Shanghai, China). […] Cisplatin (Abmole Bioscience, Shanghai, China) was used as positive control.
(§2) A total of 180 μL of cancer cells (5 × 10^3) were plated in each well of 96-well plates and cultured for 24 h, then the supernatant of the culture was discarded and 180 μL complete medium with different concentrations of test samples were added into triplicate wells of each cell line, respectively. Thereafter, A549, NCI-H292, SiHa and MKN45 were incubated for 48 h, respectively. The cell viability was evaluated by Cell Counting Kit-8 (CCK-8, Best Bio., Beijing, China), respectively. The experiments were performed in triplicate, and the data were expressed as the means ± SD of three independent experiments.

[3] = test system: A549; experiment: Cytotoxic assay (CCK-8), A549; type: cell-based, human; conditions: A549, 48 h, mean ± SD (n = 3)
Method: as §1, §2

[4] = test system: MKN45; experiment: Cytotoxic assay (CCK-8), MKN45; type: cell-based, human; conditions: mean ± SD (n = 3)
Method: as §1, §2

[5] = test system: NO production in LPS-activated RAW 264.7 cells; experiment: Inhibition of NO production in LPS-activated RAW 264.7 cells (Griess reaction); type: cell-based; conditions: Mus musculus, read-out: IC50 (NO inhibitory activity)
Method: The macrophage RAW 264.7 cells were obtained from the Cell Bank of the Chinese Academy of Sciences (Shanghai, China). A total of 180 μL of RAW 264.7 cells (1 × 10^4) were plated respectively in each well of 96-well plate and cultured for 24 h, then the supernatant of the culture was discarded and 180 μL complete medium with 1 μg/mL LPS and different concentrations of test samples were added into triplicate wells for 24 h. The inhibition effects on LPS-stimulated NO production was evaluated by the Griess reaction assay. The experiments were performed in triplicate, and the data were expressed as the means ± SD of three independent experiments.

[6] = Cytotoxicity in RAW 264.7 cells (CCK-8); conditions: mouse
Method: The cell viability was determined by the CCK-8 assay method. The cytotoxicity was calculated from the plotted results using untreated cells at 100%.

[7] = test system: NCI-H292; experiment: Cytotoxic assay (CCK-8), NCI-H292; type: cell-based, human; conditions: NCI-H292, 48 h, mean ± SD (n = 3)
Method: as §1, §2

[8] = Homo sapiens, MKN-45, MKN45, 48 h
[9] = RAW264.7, RAW 264.7, 1 μg/mL LPS, 24 h, mean ± SD (n = 3)

IC50 [5, 9] [µM]	Compound	SC50 [1] [µM]	SC50 ([1]; listed as ascorbic acid) [µM]	IC50 ([2]; Homo sapiens) [µM]	IC50 ([3]; Homo sapiens) [µM]	IC50 [4, 8] [µM]	IC50 [6] [µM]	IC50 ([7]; Homo sapiens) [µM]	IC50 [3] [µM]	IC50 ([4]; MKN45, 48 h) [µM]	IC50 [7] [µM]	antioxidant activity on DPPH radical scavenging (in words) [1]	IC50 ([5]; RAW264.7, 24 h) [µM]	IC50 [2] [µM]
–	O=C1O[C@H]([C@@H](O)CO)C(O)=C1O [Ascorbic acid, reference compound]	15.6 ± 0.8	15.5 ± 0.8	–	–	–	–	–	–	–	–	–	–	–
> 200	OCCc1ccc(O)c(O[C@@H]2O[C@H](CO)[C@@H](O)[C@H](O)[C@H]2O[C@@H]2O[C@H](CO)[C@@H](O)[C@H](O)[C@H]2O)c1 [Compound 2, 3,4-dihydroxyphenethyl alcohol 3-O-β-D-glucopyranosyl (1→2)-β-D-glucopyranoside]	–	–	> 200	> 200	> 200	> 200	> 200	–	–	–	–	–	–
> 200	CC/C=C\CCO[C@@H]1O[C@H](CO)[C@@H](O)[C@H](O)[C@H]1O[C@@H]1O[C@H](CO)[C@@H](O)[C@H](O)[C@H]1O [Compound 3, (Z)-hex-3-ene 3-O-β-D-glucopyranosyl (1→2)-β-D-glucopyranoside]	–	–	> 200	> 200	> 200	> 200	> 200	–	–	–	–	–	–
–	C[C@]12CC[C@H](O)C[C@@]1(O)CCC1C2CC[C@]2(C)[C@@H](C3=CC(=O)OC3)CC[C@]12O (stereo partly drawn) [Compound 4, perlplogemn]	–	–	–	–	–	–	–	17.4 ± 2.4	9.5 ± 0.7	22.2 ± 1.1	–	–	–
> 200	OCCc1cc(O)cc(O[C@@H]2O[C@H](CO)[C@@H](O)[C@H](O)[C@H]2O)c1 [Compound 7, 3,5-dihydroxyphenethyl alcohol 3-O-β-D-glucopyranoside]	255.2 ± 12.6	–	> 200	> 200	> 200	> 200	> 200	–	–	–	weak antioxidant activities; also recorded: weak activity	–	–
> 200	OCC1OC(OC2C(OCCc3ccccc3)OC(CO)C(O)C2O)C(O)C(O)C1O (stereo not drawn) [Compound 8, phenethyl alcohol β-sophoroside]	–	–	> 200	> 200	> 200	> 200	> 200	–	–	–	–	–	–
> 200	COc1cc(C(O)C(CO)Oc2c(OC)cc(C3OCC4C(c5ccc(OC6OC(CO)C(O)C(O)C6O)c(OC)c5)OCC34)cc2OC)ccc1O (stereo not drawn) [Compound 9, samsesquinoside]	47.3 ± 2.3	–	> 200	> 200	> 200	> 200	> 200	–	–	–	–	–	–
> 200	COc1cc(C2OCC3C(c4ccc(OC5OC(CO)C(O)C(O)C5O)c(OC)c4)OCC23)ccc1O [Compound 10, pinoresinol-4-O-D-glucoside]	30.5 ± 6.5	–	> 200	> 200	> 200	> 200	> 200	–	–	–	–	–	–
> 200	COc1cc(C2Oc3c(OC)cc(CCCO)cc3C2CO)ccc1OC1OC(CO)C(O)C(O)C1O [Compound 12, dihydrodehydro diconiferyl alcohol 4-O-β-D-glucoside]	–	–	> 200	> 200	> 200	> 200	> 200	–	–	–	–	–	–
> 200	COC/C=C/c1cc(OC)c2c(c1)[C@H](CO)[C@H](c1ccc(O[C@@H]3O[C@H](CO)[C@@H](O)[C@H](O)[C@H]3O)c(OC)c1)O2 [Compound 13, (7S, 8R) 9′-methoxy-dehydrodiconiferyl alcohol 4-O-β-D-glucopyranoside]	–	–	> 200	> 200	> 200	> 200	> 200	–	–	–	–	–	–
> 200	COc1cc([C@@H](O)[C@@H](CO)Oc2c(OC)cc(/C=C/CO)cc2OC)cc(OC)c1O[C@@H]1O[C@H](CO)[C@@H](O)[C@H](O)[C@H]1O [Compound 14, picraquassioside C]	–	–	> 200	> 200	> 200	> 200	> 200	–	–	–	–	–	–
> 200	COc1cc([C@H](O)[C@@H](CO)Oc2ccc(/C=C/CO)cc2OC)ccc1O[C@@H]1O[C@H](CO)[C@@H](O)[C@H](O)[C@H]1O [Compound 15, citrusin A]	–	–	> 200	> 200	> 200	> 200	> 200	–	–	–	–	–	–
> 200	COc1cc([C@H](O)[C@@H](CO)Oc2c(OC)cc(/C=C/CO)cc2OC)ccc1O[C@@H]1O[C@H](CO)[C@@H](O)[C@H](O)[C@H]1O [Compound 16, citrusin B]	–	–	> 200	> 200	> 200	> 200	> 200	–	–	–	–	–	–
> 200	COc1cc(C(O)C(CO)Oc2c(OC)cc(C(O)C(O)CO)cc2OC)ccc1O (stereo not drawn) [Compound 17, (erythro, erythro)-1-[4-[2-hydroxy-2-(4-hydroxy-3-methoxy-phenyl)-1-(hydroxymethyl)ethoxy]-3,5-dimethoxyphenyl]-1,2,3-propanetriol]	–	–	> 200	> 200	> 200	> 200	> 200	–	–	–	moderate activity	–	–
> 200	O=C(O)/C=C/c1ccc(O)cc1 [Compound 22, p-coumaric acid]	–	–	> 200	> 200	> 200	> 200	> 200	–	–	–	–	–	–
–	COc1cc(/C=C/CO)cc(OC)c1O[C@@H]1O[C@H](CO)[C@@H](O)[C@H](O)[C@H]1O [Compound 24, syringin]	–	–	> 200	> 200	> 200	> 200	> 200	–	–	–	–	> 200	–
> 200	COc1cc(/C=C/CO)ccc1O[C@@H]1O[C@H](CO)[C@@H](O)[C@H](O)[C@H]1O [Compound 25, coniferin]	–	–	> 200	> 200	> 200	> 200	> 200	–	–	–	–	–	–
–	COc1cc(/C=C/C=O)cc(OC)c1O[C@@H]1O[C@H](CO)[C@@H](O)[C@H](O)[C@H]1O [Compound 29, sinapaldehyde glucoside]	–	–	> 200	> 200	> 200	> 200	> 200	–	–	–	–	> 200	–
11.1 ± 1.4	O=c1c(O)c(-c2ccc(O)c(O)c2)oc2cc(O)cc(O)c12 [Quercetin, reference compound]	–	–	–	–	–	> 50	–	–	–	–	–	–	–
–	N.N.[Cl][Pt][Cl] [cisplatin, reference compound]	–	–	–	–	–	–	–	19.5 ± 6.7	7 ± 0.3	52.8 ± 5.3	–	–	7 ± 0.7
–	scopoletin [Compound 28]	–	–	–	–	–	–	–	> 200	52.8 ± 5.3	> 200	–	–	> 200

Compound	IC50 [5, 9] [µM]	SC50 [1] [µM]	SC50 ([1]; listed as ascorbic acid) [µM]	IC50 ([2]; Homo sapiens) [µM]	IC50 ([3]; Homo sapiens) [µM]	IC50 [4, 8] [µM]	IC50 [6] [µM]	IC50 ([7]; Homo sapiens) [µM]	IC50 [3] [µM]	IC50 ([4]; MKN45, 48 h) [µM]	IC50 [7] [µM]	antioxidant activity on DPPH radical scavenging (in words) [1]	IC50 ([5]; RAW264.7, 24 h) [µM]	IC50 [2] [µM]
CO[C@H]1C[C@H](OC2CC[C@]3(C)C4CC[C@]5(C)[C@@H](C6=CC(=O)OC6)CC[C@]5(O)C4CC[C@]3(O)C2)O[C@H](C)[C@H]1O[C@@H]1O[C@H](CO)[C@@H](O)[C@H](O)[C@H]1O (stereo partly drawn) [Compound 5, periplocin]	> 200	–	–	< 0.1	< 0.1	< 0.1	> 200	< 0.1	–	–	–	–	–	–
COc1cc(C2OCC3C(c4cc(OC)c(OC5OC(CO)C(O)C(O)C5O)c(OC)c4)OCC23)cc(OC)c1O [Compound 11, syringaresinol-4′-O-β-D-glucopyranoside]	> 200	16.2 ± 1.6	–	> 200	> 200	> 200	> 200	> 200	–	–	–	–	–	–
